# Patent US4061607A, “Somatostatin analogs and intermediates thereto” (Eli Lilly and Company, priority 1976, dated 1977)
# Positions of bridges follow the written chain, without caps; N, C: chain ends. Non-standard residues stand in square brackets, D forms with d. Residues, ends and D or L forms follow the SMILES beside them. Cha = N[C@@H](CC1CCCCC1)C(=O)O
# Legend:
# gastric HCl secretion = assay: in vivo inhibition of gastric acid secretion in dogs with chronic fistula and Heidenhain pouch; conditions: for effect equivalent to that dose of somatostatin: extrapolated against the dose-response curve of somatostatin, test compound 3 μg/kg-hr.; for activity relative to that of somatostatin: gastric acid secretion in dogs, relative potency expressed as percent activity
# Method: D-Phe^11 -somatostatin and L-Cha^11 -somatostatin also were tested in dogs for their in vivo inhibition of gastric acid secretion. In six dogs with chronic fistula and Heidenhain pouch, gastric HCl secretion was induced by infusion of the C-terminal tetrapeptide of gastrin at 0.5 μg/kg-hr. One dog served as control, receiving only the tetrapeptide. Another dog received the tetrapeptide and somatostatin while the test compound was administered to the remaining dogs in place of somatostatin. After one hour of steady state secretion of HCl, somatostatin or the test compound was infused at 3 μg/kg-hr. for one hour. Collection of gastric acid samples was continued for an additional 1.5 hours at 15 minute intervals. The samples were titrated to pH 7 with an automatic titrator. The maximal inhibitory effect of the test compounds was extrapolated against the dose-response curve of somatostatin, and the relative potency of the analogs to that of somatostatin is expressed as percent activity. […] This effect is equivalent to that of 0.086 μg/kg-hr. of somatostatin. Its activity relative to that of somatostatin thus is 2.87%. […] This effect is equivalent to that of 0.0825 μg/kg-hr. of somatostatin. Its activity relative to that of somatostatin therefore is 2.7%.
# [1] = system: release of growth hormone; assay: release of growth hormone in pentobarbital-stimulated rats; format: in vivo, Spraque-Dawley rats; conditions: 50 μg./rat subcutaneously, sodium pentobarbital stimulated, somatostatin comparator run in each set
# Method: D-Phe^11 -somatostatin, L-Cha^11 -somatostatin, and L-Leu^11 -somatostatin also were tested for their activity with respect to the release of growth hormone. The procedure which was employed is carried out using mature male Spraque-Dawley rats (Laboratory Supply Company, Indianapolis, Indiana). The test is a modification of the method of P. Brazeau, W. Vale, and R. Guilleman, Endocrinology, 94 184 (1974). In each assay, a set comprising three groups of eight rats each was employed. First, sodium pentobarbital was administered to all of the rats of the particular set to stimulate growth hormone secretion. In each set, one group served as control group and received only saline. A second group received somatostatin at 50 μg./rat, subcutaneously. The third group received test compound at 50 μg./rat, subcutaneously. The degree of inhibition of serum growth hormone concentration then was determined with respect to the control group, and the relative activities of test compound and somatostatin itself were compared.
# glucagon secretion [2] = assay: in vivo inhibition of glucagon secretion upon stimulation with L-alanine; design: species or system mongrel dogs; conditions: dogs, intravenous infusion; for effect on the increase in serum glucagon concentration produced by infusion of L-alanine: D-Phe11 0.211, L-Cha11 0.235, L-Leu11 0.195 μg/kg/min., L-alanine 1 mmol/kg; for effect on basal serum glucagon concentration: L-Cha11 0.235, L-Leu11 0.195 μg/kg/min.
# Method: (§1) The tetradecapeptides were tested for their in vivo activity in inhibiting glucagon and insulin secretion upon stimulation with L-alanine. Normal mongrel dogs of either sex were fasted overnight. Control blood samples were obtained, and then an intravenous infusion of saline, somatostatin, or test compound was started. After 30 minutes, L-alanine additionally was administered intravenously for a period of 15 minutes. The infusion of saline, somatostatin, or test compound was continued for 15 minutes after completion of the alanine infusion. The total dose of somatostatin or test compound which was infused is 200-500 μg/dog (about 0.20-0.30 μg/kg./minute), and the total dose of L-alanine infused was 1 mmol/kg. The infusion of L-alanine produced an abrupt increase in the serum concentration of glucagon and insulin. This returned to control concentration when the alanine infusion was discontinued.
# insulin secretion = assay: in vivo inhibition of insulin secretion upon stimulation with L-alanine; design: species or system mongrel dogs; conditions: for effect on the increase in serum insulin concentration produced by infusion of L-alanine / effect on basal serum insulin concentration: dogs, intravenous infusion; for effect on the increase in serum insulin concentration produced by infusion of L-alanine: D-Phe11 0.211, L-Cha11 0.235, L-Leu11 0.195 μg/kg/min., L-alanine 1 mmol/kg; for effect on basal serum insulin concentration: L-Cha11 0.235, L-Leu11 0.195 μg/kg/min., somatostatin about 0.20-0.30 μg/kg./minute
# Method: as §1
# glucagon secretion [3] = assay: in vivo inhibition of glucagon secretion upon stimulation with insulin; design: species or system mongrel dogs; conditions: dogs, intravenous infusion for two hours; D-Phe11 0.128, L-Cha11 0.130, L-Leu11 0.129 μg/kg/min.; insulin 0.3 units/kg.
# Method: The tetradecapeptides also were evaluated for in vivo activity in inhibiting glucagon secretion upon stimulation with insulin. Normal mongrel dogs of either sex were fasted overnight. After control blood samples had been obtained, an intravenous infusion of saline, somatostatin, or the test compound was commenced. After 15 minutes, insulin, 0.3 units/kg., was injected intravenously. The infusion of saline, somatostatin, or the test compound was continued for two hours, and blood samples were obtained at various intervals throughout the test. The total dose of the somatostatin or test compound ranged from 120-260 μg./dog (0.07-0.13 μg/kg/min.). Administration of insulin produced a reduction in the blood glucose concentration and an increase in serum glucagon concentration.
Structure (SMILES),effect equivalent to that dose of somatostatin (gastric HCl secretion) [μg/kg-hr.],activity relative to that of somatostatin (gastric HCl secretion) [%],inhibition of the increase in serum growth hormone concentration over control [1] [%],effect on the increase in serum glucagon concentration produced by infusion of L-alanine (glucagon secretion [2]),effect on basal serum glucagon concentration (glucagon secretion [2]),effect on the increase in serum insulin concentration produced by infusion of L-alanine (insulin secretion),effect on basal serum insulin concentration (insulin secretion),effect on the increase in serum glucagon concentration produced by insulin administration (glucagon secretion [3]),inhibitory effect upon the pancreatic secretion of insulin (insulin secretion; general statement)
C[C@H](N)C(=O)NCC(=O)N[C@H]1CSSC[C@@H](C(=O)O)NC(=O)[C@H](CO)NC(=O)[C@H]([C@@H](C)O)NC(=O)[C@H](CC2CCCCC2)NC(=O)[C@H]([C@@H](C)O)NC(=O)[C@H](CCCCN)NC(=O)[C@H](Cc2c[nH]c3ccccc23)NC(=O)[C@H](Cc2ccccc2)NC(=O)[C@H](Cc2ccccc2)NC(=O)[C@H](CC(N)=O)NC(=O)[C@H](CCCCN)NC1=O [L-Cha^11 -somatostatin] (H-AGCKNFFWKT[Cha]TSC-OH; disulfide 3-14),0.0825,2.7,33,did not inhibit the increase in serum concentration of either hormone,caused a decrease in the basal serum concentration of both insulin and glucagon,did not inhibit the increase in serum concentration of either hormone,caused a decrease in the basal serum concentration of both insulin and glucagon,none of these compounds inhibited the increase in serum glucagon concentration,
C[C@H](N)C(=O)NCC(=O)N[C@H]1CSSC[C@@H](C(=O)O)NC(=O)[C@H](CO)NC(=O)[C@H]([C@@H](C)O)NC(=O)[C@@H](Cc2ccccc2)NC(=O)[C@H]([C@@H](C)O)NC(=O)[C@H](CCCCN)NC(=O)[C@H](Cc2c[nH]c3ccccc23)NC(=O)[C@H](Cc2ccccc2)NC(=O)[C@H](Cc2ccccc2)NC(=O)[C@H](CC(N)=O)NC(=O)[C@H](CCCCN)NC1=O [D-Phe^11 -somatostatin],0.086,2.87,70,did not affect the increase in serum glucagon concentration,,did not affect the increase in serum glucagon concentration and serum insulin concentration,,none of these compounds inhibited the increase in serum glucagon concentration,
CC(C)C[C@@H]1NC(=O)[C@H]([C@@H](C)O)NC(=O)[C@H](CCCCN)NC(=O)[C@H](Cc2c[nH]c3ccccc23)NC(=O)[C@H](Cc2ccccc2)NC(=O)[C@H](Cc2ccccc2)NC(=O)[C@H](CC(N)=O)NC(=O)[C@H](CCCCN)NC(=O)[C@@H](NC(=O)CNC(=O)[C@H](C)N)CSSC[C@@H](C(=O)O)NC(=O)[C@H](CO)NC(=O)[C@H]([C@@H](C)O)NC1=O [L-Leu^11 -somatostatin] (H-AGCKNFFWKTLTSC-OH; disulfide 3-14),,,22,had no effect on the increase in glucagon concentration produced by L-alanine,had no affect on the basal serum concentration of either insulin or glucagon,caused only a partial inhibition of the increase in insulin secretion,had no affect on the basal serum concentration of either insulin or glucagon,none of these compounds inhibited the increase in serum glucagon concentration,exhibits an inhibitory effect upon the pancreatic secretion of insulin
